Values quoted from earlier work as cited in patent publication US20080234335A1, “Cyclohexene Compounds” (priority 2003, published 2008).

How the values were obtained:
EP1 receptor [1] = target: T1, EP1 receptor (Rattus norvegicus, UniProt P70597); set-up: host or cells: live rodent (in vivo); details: rodent model of post-operative pain
T1 sequence (P70597 1-405): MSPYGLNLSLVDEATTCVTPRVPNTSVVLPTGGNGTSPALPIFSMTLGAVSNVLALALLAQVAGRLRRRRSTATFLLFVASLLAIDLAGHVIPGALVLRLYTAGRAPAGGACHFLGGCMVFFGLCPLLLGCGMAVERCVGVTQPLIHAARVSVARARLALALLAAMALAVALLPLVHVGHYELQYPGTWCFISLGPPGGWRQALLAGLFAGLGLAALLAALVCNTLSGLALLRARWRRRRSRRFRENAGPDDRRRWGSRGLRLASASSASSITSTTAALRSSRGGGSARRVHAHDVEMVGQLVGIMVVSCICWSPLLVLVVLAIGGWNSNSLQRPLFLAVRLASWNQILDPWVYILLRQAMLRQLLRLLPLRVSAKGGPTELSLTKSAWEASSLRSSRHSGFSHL

EP1 receptor [2] = target: T1, EP1 receptor; set-up: host or cells: live rat (in vivo); details: rat model of chronic constriction injury

In the case of `Cc1cc(Cl)ccc1S(=O)(=O)NC[C@H]1C2CCC(CC2)[C@@H]1/C=C\CCCC(=O)O` [ONO-8711], the “effect on mechanical hyperalgesia” value (EP1 receptor [1]) is given as “inhibits mechanical hyperalgesia” and the “effect on hyperalgesia and allodynia” value (EP1 receptor [2]) is given as “reduces hyperalgesia and allodynia”.
